Where no end group is shown, it is not given here.
How the values were obtained:
[1] = system: patients with advanced solid tumors; experiment: Phase I safety and tolerability study of ATX-101 (studies ATX101-01 and -02); format: in vivo
Description: A Phase I, open-label, single arm, safety and tolerability study was conducted (study ATX101-01) which evaluated escalating dose cohorts of ATX-101 (SEQ ID NO: 914) in patients with advanced solid tumors. The study was designed to systematically assess safety and tolerability, and to identify the Maximum Tolerated Dose (MTD) and recommended Phase II dose for ATX-101. Pharmacokinetics and preliminary efficacy (anti-tumor activity) were also assessed.
If at the end of the 6-week Phase I study (study ATX101-01) the patient's tumor didn't show signs of progression, treatment could be continued in a long-term follow-up study (study ATX101-02) until disease progression or other reasons for treatment discontinuation, e.g. withdrawal of consent.
Four dose levels (20, 35, 45 and 60 mg/m^2 of body surface area calculated based on the height and weight of patients) of intravenous ATX-101 (net peptide, excluding the mass of the salt component) were tested in the Phase I study (study ATX101-01). ATX-101 was administered via IV infusion over at least 1 hour either using a constant infusion rate or an adaptable infusion rate scheme starting with 5 mg/hr and increasing the infusion flow rate every 30 minutes, as outlined in the infusion rate table below (Table 1). […] Doses of 45 and 60 mg/m^2 were administered in 500 mL.
Treatment was administered weekly in cycles of 21-day duration, with a single IV infusion of ATX-101 on Day 1, 8 and 15 of each cycle. Dosing of patients occurred weekly for up to two cycles (i.e. 2×21 days=6 weeks).
Following the initial 6 weeks of treatment in the Phase I study (study ATX101-01), patients could continue the treatment in the long-term follow-up study (study ATX101-02). These patients, that received the same dose regimen as in study −01, were treated for up to 15.6 months.
Safety: Incidence, severity, and duration of treatment-emergent adverse events (TEAEs) and treatment related TEAEs were assessed according to Common Terminology Criteria for Adverse Events (CTCAE) v4.03.

[2] = Solubility of the peptide drug substance; format: physicochemical; conditions: water and aqueous media; hydrochloride salt
Excerpt: The product was available as a hydrochloride salt (chloride counter-ion is ionically bound to the basic side chains of the peptide; 18 mol/mol peptide, theoretically; Molecular formula: C158H285N71O29S, 18 HCl; Relative molecular mass: […]. Free base: 3673.3).

## Ac-MDRWLVKWKKKRKIRRRRRRRRRRR (N-terminus assumed) [ATX-101]
[1]; 22 patients, weekly IV infusion, all dose levels (20-60 mg/m^2)
  treatment related deaths: No treatment related deaths
[1]; in vivo
  course of infusion-related reactions after repeated doses: did not worsen
[1]; in vivo, iv
  Dose Limiting Toxicities (DLTs): no Dose Limiting Toxicities
  infusion-related reactions (IRR) Grade 1 or 2, proportion of patients: 73%
  treatment discontinuation due to treatment related toxicity: no treatment discontinuation due to treatment related toxicity
  treatment related serious adverse event or severe adverse event: no treatment related serious adverse event or severe adverse event
[2]
  solubility: freely soluble

— patent US12558400B2, “Method of treatment of soft tissue sarcoma with a peptide comrpising a PCNA interacting motif” (THERAPIM PTY LTD, priority 2020, dated 2026)
